Data: the NIST ThermoML archive (doi:10.1016/j.fluid.2007.07.016)

Assay: xn = mol fraction of the nth substance listed
Conditions: 101 kPa, Liquid; for viscosity: Capillary tube (Ostwald / Ubbelohde) method; for speed of sound: Linear variable-path acoustic interferometer

Cc1ccccc1C [1,2-dimethylbenzene] + C1CCOC1
Conditions	speed of sound, 288.15 K [m/s]	speed of sound, 298.15 K [m/s]	speed of sound, 308.15 K [m/s]	speed of sound, 318.15 K [m/s]	viscosity, 288.15 K [mPa·s]	viscosity, 298.15 K [mPa·s]	viscosity, 308.15 K [mPa·s]	viscosity, 318.15 K [mPa·s]
x2 = 0	1388.5	1350.3	1321.4	1285.8	0.8623	0.7576	0.669	0.5972
x2 = 0.0764	1384.3	1345.1	1314.5	1277.9	0.8385	0.738	0.6535	0.585
x2 = 0.1504	1380	1340	1307.8	1270.2	0.8155	0.7192	0.6384	0.573
x2 = 0.2243	1375.7	1335	1301.1	1262.7	0.7919	0.6998	0.6226	0.5602
x2 = 0.2942	1371.4	1330	1294.8	1255.6	0.769	0.6807	0.6067	0.5471
x2 = 0.366	1366.9	1324.9	1288.3	1248.4	0.7451	0.6606	0.59	0.5331
x2 = 0.4226	1363.4	1320.9	1283.2	1242.8	0.726	0.6445	0.5764	0.5216
x2 = 0.4801	1359.7	1316.7	1278	1237.1	0.7063	0.6277	0.5621	0.5094
x2 = 0.531	1356.3	1313	1273.4	1232.1	0.6888	0.6127	0.5493	0.4981
x2 = 0.585	1352.6	1309	1268.5	1226.8	0.6694	0.5959	0.5348	0.4856
x2 = 0.6578	1347.6	1303.6	1262	1219.7	0.6432	0.5731	0.515	0.4684
x2 = 0.7322	1342.5	1298	1255.4	1212.5	0.6159	0.5493	0.4941	0.4498
x2 = 0.8049	1337.4	1292.5	1248.9	1205.6	0.5887	0.5253	0.4729	0.431
x2 = 0.8708	1332.6	1287.5	1243	1199.3	0.5635	0.503	0.453	0.413
x2 = 0.9392	1327.7	1282.3	1236.9	1192.9	0.537	0.4794	0.4319	0.394
